Here are results for 15 molecules from patent US20220411372A1, “SMALL-MOLECULE INHIBITORS FOR THE B-CATENIN/B-CELL LYMPHOMA 9 PROTEIN-PROTEIN INTERACTION” (H. Lee Moffitt Cancer Center and Research Institute, Inc., priority 2019, published 2022).

In this assay the target is T1, β-catenin/BCL9 PPI (Homo sapiens, UniProt P35222).
T1 construct: Full-length β-catenin (residues 1-781) were cloned into a pET-28b vector; made in house; host or cells: E. coli BL21 DE3 (β-catenin); BCL9 peptide synthesized by InnoPep Inc
T1 sequence (P35222 1-781): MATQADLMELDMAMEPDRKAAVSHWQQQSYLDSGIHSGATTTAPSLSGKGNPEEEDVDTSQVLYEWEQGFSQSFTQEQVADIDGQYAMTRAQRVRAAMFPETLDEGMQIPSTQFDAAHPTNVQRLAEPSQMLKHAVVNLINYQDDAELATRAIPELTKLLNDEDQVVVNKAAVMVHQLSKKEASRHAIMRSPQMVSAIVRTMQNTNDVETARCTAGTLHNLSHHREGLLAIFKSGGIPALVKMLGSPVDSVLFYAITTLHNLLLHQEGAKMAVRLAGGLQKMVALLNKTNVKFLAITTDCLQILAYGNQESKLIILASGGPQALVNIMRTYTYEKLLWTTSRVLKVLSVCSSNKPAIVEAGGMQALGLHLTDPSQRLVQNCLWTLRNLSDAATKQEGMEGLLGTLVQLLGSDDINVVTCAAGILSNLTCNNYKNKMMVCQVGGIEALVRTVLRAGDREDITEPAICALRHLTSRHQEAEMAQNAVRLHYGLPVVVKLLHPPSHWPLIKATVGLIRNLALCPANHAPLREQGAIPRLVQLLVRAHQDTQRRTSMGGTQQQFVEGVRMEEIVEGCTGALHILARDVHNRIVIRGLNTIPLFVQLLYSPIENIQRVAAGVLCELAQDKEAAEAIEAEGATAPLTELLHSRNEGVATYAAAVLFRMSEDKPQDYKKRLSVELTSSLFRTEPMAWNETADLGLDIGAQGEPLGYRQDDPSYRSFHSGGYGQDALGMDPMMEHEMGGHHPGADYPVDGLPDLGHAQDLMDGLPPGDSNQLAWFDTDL
Nature of the assay: AlphaScreen competitive inhibition assay of the β-catenin/BCL9 PPI. The assay is classed as binding. As to conditions: read-out: Ki. An outline of the steps: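 5 nM biotinylated BCL9 and 40 nM His6-β-catenin preincubated 30 min at 4° C in pH 7.4 Hepes buffer with 0.01% Triton X-100, 0.1% BSA, 1% DMSO; inhibitor added 1 h at 4° C, then 10 μg/mL donor/acceptor beads 1 h.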
(Bead proximity is the source of the signal in Alpha formats.)

Where two headings read alike, the source gives them in different places.

As a reminder, the Ki is a measure of affinity in units of concentration, obtained from inhibition or displacement.

Turning to `CC(C)(Oc1cccc(N2CCC[C@@H](C(=O)N(Cc3ccc(-c4cn[nH]c4)cc3)C3CC3)C2)c1)C(=O)N1CC2(CNC2)C1` [Compound 62, (R)-6-(2-(3-(3-((4-(1H-pyrazol-4-yl)benzyl)(cyclopropyl)carbamoyl)piperidin-1-yl)phenoxy)-2-methylpropanoyl)-2,6-diazaspiro[3.3]heptan-2-ium 2,2,2-trifluoroacetate], the Ki (Table 5, inhibitors 54-62) is less than 90 µM.
For `O=C([C@@H]1CCCN(c2cccc(OC3(C(=O)N4CCNCC4)CC3)c2)C1)N(Cc1ccc(-c2cn[nH]c2)cc1)C1CC1` [Compound 82, (R)-4-(1-(3-(3-((4-(1H-pyrazol-4-yl)benzyl)(cyclopropyl)carbamoyl)piperidin-1-yl)phenoxy)cyclopropane-1-carbonyl)piperazin-1-ium chloride], for the setting “Table 8, inhibitors 82-92”, the Ki was less than 10 µM.
The same measure, in the same setting: as for `O=C([C@@H]1CCCN(c2cccc(OC3(C(=O)N4CCNCC4)CCCC3)c2)C1)N(Cc1ccc(-c2cn[nH]c2)cc1)C1CC1` [Compound 83, (R)-4-(1-(3-(3-((4-(1H-pyrazol-4-yl)benzyl)(cyclopropyl)carbamoyl)piperidin-1-yl)phenoxy)cyclopentane-1-carbonyl)piperazin-1-ium chloride], the figure is less than 90 µM; as for `O=C(c1cccc(N2CCC[C@@H](C(=O)N(Cc3ccc(-c4cn[nH]c4)cc3)C3CC3)C2)c1)N1CCNCC1` [Compound 85, (R)-4-(3-(3-((4-(1H-pyrazol-4-yl)benzyl)(cyclopropyl)carbamoyl)piperidin-1-yl)benzoyl)piperazin-1-ium chloride], less than 90 µM; as for `O=C(C(Oc1cccc(N2CCC[C@@H](C(=O)N(Cc3ccc(-c4cn[nH]c4)cc3)C3CC3)C2)c1)c1ccccc1)N1CCNCC1` (stereo partly drawn) [Compound 86, 4-(2-(3-((R)-3-((4-(1H-pyrazol-4-yl)benzyl)(cyclopropyl)carbamoyl)piperidin-1-yl)phenoxy)-2-phenylacetyl)piperazin-1-ium chloride], less than 30 µM.
Same read-out and setting: with `O=C(C(Cc1ccccc1)Oc1cccc(N2CCC[C@@H](C(=O)N(Cc3ccc(-c4cn[nH]c4)cc3)C3CC3)C2)c1)N1CCNCC1` (stereo partly drawn) [Compound 87, 4-(2-(3-((R)-3-((4-(1H-pyrazol-4-yl)benzyl)(cyclopropyl)carbamoyl)piperidin-1-yl)phenoxy)-3-phenylpropanoyl)piperazin-1-ium chloride] the figure was less than 90 µM.
Consider `CC(C)(Oc1cccc(N2CCC[C@@H](C(=O)N(Cc3ccc(-c4cn[nH]c4)cc3OCCN)C3CC3)C2)c1)C(=O)N1CCNCC1` [Compound 89, (R)-4-(2-(3-(3-((2-(2-ammonioethoxy)-4-(1H-pyrazol-4-yl)benzyl)(cyclopropyl)carbamoyl)piperidin-1-yl)phenoxy)-2-methylpropanoyl)piperazin-1-ium chlorine], for which the Ki (Table 8, inhibitors 82-92) was less than 90 µM.
Regarding `CC(C)c1ccc2c(c1)CCN(C(=O)[C@@H]1CCCN(c3cccc(OC(C)(C)C(=O)N4CCNCC4)c3)C1)C2` [Compound 90, (R)-4-(2-(3-(3-(6-isopropyl-1,2,3,4-tetrahydroisoquinoline-2-carbonyl)piperidin-1-yl)phenoxy)-2-methylpropanoyl)piperazin-1-ium chlorine], where the note is “Table 8, inhibitors 82-92”, the Ki is less than 30 µM.
Consider `CC(C)(Oc1cccc(N2CCC[C@@H](C(=O)N3CCc4cc(-c5ccccc5)ccc4C3)C2)c1)C(=O)N1CCNCC1` [Compound 91, (R)-4-(2-methyl-2-(3-(3-(6-phenyl-1,2,3,4-tetrahydroisoquinoline-2-carbonyl)piperidin-1-yl)phenoxy)propanoyl)piperazin-1-ium chlorine], for which the Ki (Table 8, inhibitors 82-92) was less than 5 µM.
Same read-out and setting: with `CC(C)(Oc1cccc(N2CCC[C@@H](C(=O)N3CCc4cc(-c5cn[nH]c5)ccc4C3)C2)c1)C(=O)N1CCNCC1` [Compound 92, (R)-4-(2-(3-(3-(6-(1H-pyrazol-4-yl)-1,2,3,4-tetrahydroisoquinoline-2-carbonyl)piperidin-1-yl)phenoxy)-2-methylpropanoyl)piperazin-1-ium chloride] the figure was less than 90 µM.
On to `CCOc1cc(-c2cn[nH]c2)ccc1CN(C(=O)[C@@H]1CCCN(c2cccc(OC(C)(C)C(=O)N3CCNCC3)c2)C1)C1CC1` [Compound 109, (R)-4-(2-(3-(3-(Cyclopropyl(2-ethoxy-4-(1H-pyrazol-4-yl)benzyl)carbamoyl)piperidin-1-yl)phenoxy)-2-methylpropanoyl)piperazin-1-ium chloride], for which the Ki (Table 12, inhibitors 109-112) was not above 30 µM.
Still for that read-out and setting: with `CC(C)Oc1cc(-c2cn[nH]c2)ccc1CN(C(=O)[C@@H]1CCCN(c2cccc(OC(C)(C)C(=O)N3CCNCC3)c2)C1)C1CC1` [Compound 110, (R)-4-(2-(3-(3-(Cyclopropyl(2-isopropoxy-4-(1H-pyrazol-4-yl)benzyl)carbamoyl)piperidin-1-yl)phenoxy)-2-methylpropanoyl)piperazin-1-ium chloride] the figure was not above 30 µM.
Still for that read-out and setting: with `CCCOc1cc(-c2cn[nH]c2)ccc1CN(C(=O)[C@@H]1CCCN(c2cccc(OC(C)(C)C(=O)N3CCNCC3)c2)C1)C1CC1` [Compound 111, (R)-4-(2-(3-(3-(Cyclopropyl(2-propoxy-4-(1H-pyrazol-4-yl)benzyl)carbamoyl)piperidin-1-yl)phenoxy)-2-methylpropanoyl)piperazin-1-ium chloride] the figure was not above 30 µM.
Same read-out and setting: as for `CC(C)(Oc1cncc(N2CCC[C@@H](C(=O)N(Cc3ccc(-c4cn[nH]c4)cc3)C3CC3)C2)c1)C(=O)N1CCNCC1` [Compound 112, (R)-4-(2-((5-(3-((4-(1H-pyrazol-4-yl)benzyl)(cyclopropyl)carbamoyl)piperidin-1-yl)pyridin-3-yl)oxy)-2-methylpropanoyl)piperazin-1-ium chloride], the figure is not above 30 µM.
In the case of “(R)-2-(3-(3-(cyclopropyl(4-isopropylbenzyl)carbamoyl)piperidin-1-yl)phenoxy)-2-methylpropanoic acid [Compound 98]”, the Ki (Table 9, inhibitors 93-98, racemic) is not above 90 µM.
